Results as given in US6835382B2, “Ii peptide therapeutics to enhance antigen presentation” (University of Massachusetts, priority 1996, dated 2004).
Non-standard residues stand in square brackets, D forms with d. hArg = N=C(N)NCCCC[C@H](N)C(=O)O; Orn = NCCC[C@H](N)C(=O)O

Legend:
[1] = molecular target: T1, murine E^d MHC class II allele (Mus musculus, UniProt P01904+P01915); assay: antigenic peptide prepulse assay, E^d allele (fixed APC prepulsed with HEL106-116); format: cell-based; design: The A20 and CH27 B cell lymphoma lines express H-2^d and H-2^k alleles, respectively; endogenous in cells; host or cells: A20 B cell lymphoma (mitomycin C-treated or paraformaldehyde-fixed); conditions: for Activity in antigenic peptide prepulse assay, E^d (baseline = 1.00) / Activity in antigenic peptide prepulse assay, E^d (baseline without AE peptide = 1.00) / Activity in antigenic peptide prepulse assay, E^d (baseline = 1.0): AE peptide 64 μM; for Activity in antigenic peptide prepulse assay, E^d (baseline without AE peptide = 1.00): Table 19, prepulse 12 μM HEL106-116; for Activity in antigenic peptide prepulse assay, E^d (baseline = 1.0): Table 26
T1 sequence (P01904 26-255): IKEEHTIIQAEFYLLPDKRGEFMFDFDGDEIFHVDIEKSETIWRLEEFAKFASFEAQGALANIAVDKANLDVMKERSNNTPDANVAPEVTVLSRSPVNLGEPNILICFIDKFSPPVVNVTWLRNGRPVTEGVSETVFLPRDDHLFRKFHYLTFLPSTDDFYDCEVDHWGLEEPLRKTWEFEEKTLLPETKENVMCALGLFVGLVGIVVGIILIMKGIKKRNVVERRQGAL
T1 sequence (P01915 27-264 limits assumed): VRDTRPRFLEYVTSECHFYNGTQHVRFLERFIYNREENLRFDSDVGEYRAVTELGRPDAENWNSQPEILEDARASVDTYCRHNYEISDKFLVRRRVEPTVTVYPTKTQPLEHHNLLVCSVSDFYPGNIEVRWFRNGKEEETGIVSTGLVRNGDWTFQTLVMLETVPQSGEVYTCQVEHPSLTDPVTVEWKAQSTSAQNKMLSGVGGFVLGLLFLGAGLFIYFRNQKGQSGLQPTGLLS
Procedure: (§1) In a second type of assay, the “peptide prepulse assay”, the antigenic peptide is incubated with paraformaldehyde-fixed APC for 6 h. The APC are washed and incubated for 24 h with the AE101 series homolog and the T cell hybridoma specific for the antigenic peptide. After that incubation, an aliquot of the culture supernatant is transferred to a second culture to measure the relative degree of T hybridoma stimulation, as reflected in the effect of released interleukins on the growth of an interleukin-dependent, indicator cell line, as described above.
(§2) The two above described assays measure different aspects of the molecular mechanism of the AE101 series of peptides. In the “simultaneous assay”, AE101 series peptides are thought to induce the release of endogenously bound peptides and to permit the binding of the second, specific antigenic peptide which is relatively abundant in the culture fluid. The AE101 series peptides enhance antigenic peptide-specific T cell responses in simultaneous assays. In the “peptide prepulse” assay, the specific antigenic peptide becomes bound to MHC class II molecules on the surface of the fixed APC during the 6 h prepulse incubation. The effect of the AE101 series homologs is then thought to release that antigenic peptide, resulting in an apparent suppression of the immune response.
(§3) The AE101 series peptides are thought to contact the MHC class II molecules at a discrete site outside the antigenic peptide-binding groove. AE101 peptide binding to this “Ii-KEY” site is thought to induce a conformational change in the MHC class II molecules accelerating the dissociation of previously bound antigenic peptide. […] The AE101 series peptides thus inhibit antigenic peptide-specific T cell responses in the “peptide prepulse” assays.
(§4) Antigenic peptide-specific T cell activation was measured by the following procedure. Mitomycin C-treated A20 cells (A^dE^d) or CH27 cells APC (A^kE^k) were generated by incubating 5×10^6 cells/mL for 20 min at 37° C. with 0.025 mg/mL of mitomycin C (Sigma) in Dulbecco's Modified Eaglel's Medium (DMEM)/10 mM N-2(hydroxyethylpiperazine-N″[2-ethanesulfonic acid] (HEPES), followed by two washes with four volumes of DMEM-5% fetal calf serum (FCS), 10 mM HEPES. Fixed APC were generated by treating 1×10^6 cells/mL for 5 min with 0.5% paraformaldehyde in PBS (pH 7.2), followed by two washes with four volumes of DMEM-10% FCS, 10 mM HEPES. T cell hybridomas were irradiated 2200 rads before each assay.
(§5) The “peptide prepulse assay” was carried out under essentially the same conditions as described for the “simultaneous assay” with the following modifications. Fixed APC were first incubated for 6 h at 1×10^6 cells/mL in complete DMEM-5% FCS in 24-well microculture plates (1 mL/well) with antigenic peptide, followed by four washes with 10 volumes of DMEM-5% FCS. The cells were then exposed to varying concentrations of AE101 series peptide (64 μM, 16 μM, 4 μM, and 1 μM) for 24 h in the presence of the T cell hybridoma specific to the antigenic peptide. Interleukin release from these cultures was measured by proliferation of HT-2 cells to interleukins in supernatants transferred from the primary culture. Generally, a single dose of 64 μM of each AE101 series peptide was used. The baseline T cell response was measured by culturing T hybridoma cells with the antigenic peptide-prepulsed APC in the absence of AE101 series peptides.
[…] […] Paraformaldehyde-treated APC (fixed APC) expressing MHC class II molecules were incubated with antigenic peptide for 6 h (HEL106-116 for E^d and PGCC81-104 for E^k). After this incubation, the prepulsed APC were washed and cultured with T hybridoma cells and AE101 series peptides. […] The AE101 series peptide concentrations were 64 μM for E^d and 16 μM for E^k. The dilutions of supernatant taken into the HT-2 cell assay were 1:4 for Ed and 1:2 for E^k.

[2] = tested on: murine E^k MHC class II allele; assay: antigenic peptide prepulse assay, E^k allele (fixed APC prepulsed with PGCC81-104); format: cell-based; conditions: for Activity in antigenic peptide prepulse assay, E^k (baseline without AE peptide = 1.00): Table 19, prepulse 20 μM PGCC81-104; for Activity in antigenic peptide prepulse assay, E^k (baseline = 1.0): Table 26, prepulse 1.25 μM antigenic peptide
Procedure: as §1, §2, §3, §4, §5
Table 19: Activities of C-terminal truncation analogs of AE101 in an antigenic peptide prepulse assay. […] Paraformaldehyde-treated APC (fixed APC) expressing MHC class II molecules were incubated with antigenic peptide for 6 h (HEL106-116 for E^d and PGCC81-104 for E^k). After this incubation, the prepulsed APC were washed and cultured with T hybridoma cells and AE101 series peptides. The antigenic peptide concentration during the prepulse was 12 μM for Ed and 20 μM for E^k. The AE101 series peptide concentrations were 64 μM for E^d and 16 μM for E^k. […]

[3] = Table 25, prepulse 24 μM antigenic peptide, supernatant 1:4
[4] = Table 25, AE peptide 64 μM, prepulse 2.5 μM antigenic peptide, supernatant 1:10
[5] = Table 24, prepulse 24 μM antigenic peptide, supernatant 1:4
[6] = Table 24, AE peptide 64 μM, prepulse 0.625 μM antigenic peptide, supernatant 1:8
[7] = AE peptide 16 μM, supernatant 1:2
[8] = Table 22, prepulse 6 μM antigenic peptide, supernatant 1:8
[9] = Table 22, AE peptide 16 μM, prepulse 20 μM antigenic peptide, supernatant 1:2
[10] = Table 20, prepulse 3 μM antigenic peptide, supernatant 1:2
[11] = Table 20, AE peptide 16 μM, prepulse 20 μM antigenic peptide, supernatant 1:2
[12] = prepulse 24 μM antigenic peptide, supernatant 1:2
[13] = AE peptide 64 μM, supernatant 1:8

Ac-LRNKNPK-NH2 [AE349]
Activity in antigenic peptide prepulse assay, E^d (baseline = 1.00) [1, 3]: 0.69
Activity in antigenic peptide prepulse assay, E^k (baseline = 1.00) [2, 4]: 0.81

Ac-LRMKLP F-NH2 (Ac-LRMKLPF-NH2) [AE248]
Activity in antigenic peptide prepulse assay, E^d (baseline = 1.00) [1, 3]: 0.63
Activity in antigenic peptide prepulse assay, E^k (baseline = 1.00) [2, 4]: 0.98

Ac-LRMK N PK-NH2 (Ac-LRMKNPK-NH2) [AE232]
Activity in antigenic peptide prepulse assay, E^d (baseline = 1.00) [1, 3]: 0.44
Activity in antigenic peptide prepulse assay, E^k (baseline = 1.00) [2, 4]: 0.92

Ac-LR (mL) KYPK-NH2 [AE303]
Activity in antigenic peptide prepulse assay, E^d (baseline = 1.00) [1, 5]: 0.78
Activity in antigenic peptide prepulse assay, E^k (baseline = 1.00) [2, 6]: 1.00

Ac-LRMKLPKPPP-NH2 [AE167]
Activity in antigenic peptide prepulse assay, E^d (baseline without AE peptide = 1.00) ([1]; supernatant 1:4): 0.23
Activity in antigenic peptide prepulse assay, E^k (baseline without AE peptide = 1.00) [2, 7]: 0.01

Ac-l RMKLPK-NH2 [AE160]
Activity in antigenic peptide prepulse assay, E^d (baseline = 1.00) [1, 8]: 0.40
Activity in antigenic peptide prepulse assay, E^k (baseline = 1.00) [2, 9]: 0.47

Ac-ARMKLPKSAK-NH2 [AE120]
Activity in antigenic peptide prepulse assay, E^d (baseline = 1.00) [1, 3]: 0.63
Activity in antigenic peptide prepulse assay, E^k (baseline = 1.00) [2, 4]: 0.62

YRMKLPKSAKPVSQMR [AE101]
Activity in antigenic peptide prepulse assay, E^d (baseline = 1.00) [1, 10]: 0.25
Activity in antigenic peptide prepulse assay, E^k (baseline = 1.00) [2, 11]: 0.89

Ac-Y[hArg]MKLPKSAK-NH2 [AE132]
Activity in antigenic peptide prepulse assay, E^d (baseline = 1.00) [1, 10]: 0.58
Activity in antigenic peptide prepulse assay, E^d (baseline = 1.0) [1, 12]: 0.82
Activity in antigenic peptide prepulse assay, E^k (baseline = 1.00) [2, 11]: 0.1
Activity in antigenic peptide prepulse assay, E^k (baseline = 1.0) [2, 13]: 0.89

Ac-YRMKLPKSAK-NH2 [AE109]
Activity in antigenic peptide prepulse assay, E^d (baseline without AE peptide = 1.00) ([1]; supernatant 1:4): 0.11
Activity in antigenic peptide prepulse assay, E^d (baseline = 1.00) [1, 10]: 0.28
Activity in antigenic peptide prepulse assay, E^d (baseline = 1.00) ([1]; Table 21, prepulse 24 μM antigenic peptide, supernatant 1:8): 0.10
Activity in antigenic peptide prepulse assay, E^k (baseline without AE peptide = 1.00) [2, 7]: 0.07
Activity in antigenic peptide prepulse assay, E^k (baseline = 1.00) [2, 11]: 0.28
Activity in antigenic peptide prepulse assay, E^k (baseline = 1.00) ([2]; Table 21, AE peptide 16 μM, prepulse 20 μM antigenic peptide, supernatant 1:2): 0.07

Ac-LR (mL) KYPk-NH2 [AE305]
Activity in antigenic peptide prepulse assay, E^d (baseline = 1.00) [1, 5]: 0.72
Activity in antigenic peptide prepulse assay, E^k (baseline = 1.00) [2, 6]: 0.91

Ac-Y Y MKLPKSAK-NH2 [AE140]
Activity in antigenic peptide prepulse assay, E^d (baseline = 1.00) [1, 10]: 0.78
Activity in antigenic peptide prepulse assay, E^k (baseline = 1.00) [2, 11]: 0.79

Ac-LRLKYPk-NH2 [AE307]
Activity in antigenic peptide prepulse assay, E^d (baseline = 1.00) [1, 5]: 0.59
Activity in antigenic peptide prepulse assay, E^k (baseline = 1.00) [2, 6]: 1.10

Ac-LR[Orn]KLPK-NH2 [AE195]
Activity in antigenic peptide prepulse assay, E^d (baseline = 1.00) [1, 3]: 0.41
Activity in antigenic peptide prepulse assay, E^k (baseline = 1.00) [2, 4]: 0.74

Ac-LR L KLPK-NH2 (Ac-LRLKLPK-NH2; not fully specified; printed as Ac-LR L KLPK-NH2) [AE206]
Activity in antigenic peptide prepulse assay, E^d (baseline = 1.00) [1, 5]: 0.52
Activity in antigenic peptide prepulse assay, E^d (baseline = 1.00) [1, 3]: 0.18
Activity in antigenic peptide prepulse assay, E^d (baseline = 1.0) [1, 12]: 0.38
Activity in antigenic peptide prepulse assay, E^k (baseline = 1.00) [2, 6]: 1.00
Activity in antigenic peptide prepulse assay, E^k (baseline = 1.00) [2, 4]: 0.68
Activity in antigenic peptide prepulse assay, E^k (baseline = 1.0) [2, 13]: 0.96

Ac-YRMKLP-NH2 [AE115]
Activity in antigenic peptide prepulse assay, E^d (baseline without AE peptide = 1.00) ([1]; supernatant 1:4): 0.49
Activity in antigenic peptide prepulse assay, E^k (baseline without AE peptide = 1.00) [2, 7]: 0.07

Ac-LRNKNPF-NH2 [AE348]
Activity in antigenic peptide prepulse assay, E^d (baseline = 1.00) [1, 3]: 0.39
Activity in antigenic peptide prepulse assay, E^k (baseline = 1.00) [2, 4]: 0.72

Ac-Y E MKLPKSAK-NH2 [AE136]
Activity in antigenic peptide prepulse assay, E^d (baseline = 1.00) [1, 10]: 0.54
Activity in antigenic peptide prepulse assay, E^k (baseline = 1.00) [2, 11]: 0.97

Ac-LRMKLP k-NH2 [AE166]
Activity in antigenic peptide prepulse assay, E^d (baseline = 1.00) [1, 8]: 0.11
Activity in antigenic peptide prepulse assay, E^d (baseline = 1.00) [1, 5]: 0.65
Activity in antigenic peptide prepulse assay, E^k (baseline = 1.00) [2, 9]: 0.15
Activity in antigenic peptide prepulse assay, E^k (baseline = 1.00) [2, 6]: 0.83

Ac-LRMKLPKPPK-NH2 [AE168]
Activity in antigenic peptide prepulse assay, E^d (baseline without AE peptide = 1.00) ([1]; supernatant 1:4): 0.10
Activity in antigenic peptide prepulse assay, E^k (baseline without AE peptide = 1.00) [2, 7]: 0.01

Ac-LRMK l PK-NH2 [AE164]
Activity in antigenic peptide prepulse assay, E^d (baseline = 1.00) [1, 8]: 0.37
Activity in antigenic peptide prepulse assay, E^d (baseline = 1.00) [1, 5]: 0.59
Activity in antigenic peptide prepulse assay, E^k (baseline = 1.00) [2, 9]: 0.21
Activity in antigenic peptide prepulse assay, E^k (baseline = 1.00) [2, 6]: 0.67

Ac-YRMKLPK-NH2 [AE113]
Activity in antigenic peptide prepulse assay, E^d (baseline without AE peptide = 1.00) ([1]; supernatant 1:4): 0.10
Activity in antigenic peptide prepulse assay, E^k (baseline without AE peptide = 1.00) [2, 7]: 0.04

Ac-LRMK (mL) PK-NH2 [AE175]
Activity in antigenic peptide prepulse assay, E^d (baseline = 1) ([1]; Table 23, as printed: antigenic peptide prepulse 64 μM, AE peptide 1:4 μM, supernatant 1:8): 0.7
Activity in antigenic peptide prepulse assay, E^d (baseline = 1.00) [1, 5]: 0.70
Activity in antigenic peptide prepulse assay, E^k (baseline = 1) ([2]; Table 23, as printed: antigenic peptide prepulse 64 μM, AE peptide 1:8 μM, supernatant 1:2): 0.87
Activity in antigenic peptide prepulse assay, E^k (baseline = 1.00) [2, 6]: 0.87
